# Assay results taken from article PMC11845761, “Intestinal human carboxylesterase 2 (CES2) expression rescues drug metabolism and most metabolic syndrome phenotypes in global Ces2 cluster knockout mice” (Acta Pharmacologica Sinica, 2024).
# Marks after values point to notes of the source that are not given here.
# Legend:
# [1] = Tissue concentrations of vinorelbine and deacetylvinorelbine 4 h after i.v. vinorelbine in CES2-modified mice; format: in vivo, mouse; settings: i.v. vinorelbine 10 mg/kg
# Experimental: (§1) For capecitabine 2-h experiments, 6–7 female mice received oral capecitabine (500 mg/kg, 10 μL/g), and tail vein blood samples were collected at 0.125, 0.25, 0.5 and 1 h after drug administration. For the vinorelbine 4-h experiment, 6-7 male mice received vinorelbine intravenously (10 mg/kg, 5 μL/g) or orally (10 mg/kg, 10 μL/g) using a blunt-ended needle. Tail vein blood samples were collected at 0.125, 0.25, 0.5, 1 and 2 h after drug administration. […] At the last time point in each experiment (2 or 4 h), mice were anesthetized with 5% isoflurane and blood was collected by cardiac puncture. […] Plasma was isolated from the blood by centrifugation at 9000 × g for 6 min at 4 °C, and the plasma fraction was collected and stored at −30 °C until analysis.
# (§2) Concentrations of capecitabine (and its metabolites) and vinorelbine (and its metabolite) in mouse plasma samples and organ homogenates were determined using two independent validated high-performance liquid chromatography-tandem mass spectrometry assays.
# (§3) Pharmacokinetic parameters were calculated by non-compartmental methods using the PK solver software. […] Differences were considered statistically significant when P < 0.05. All data are presented as mean ± SD.
# [2] = Plasma pharmacokinetics of vinorelbine and deacetylvinorelbine after oral vinorelbine in CES2-modified mice; format: in vivo, mouse; settings: oral vinorelbine 10 mg/kg; for AUC0-4h / AUC0-4h ratio (× 10^−3) (deacetylvinorelbine/vinorelbine) / Cmax / Tmax: plasma
# Experimental: as §1, §2, §3
compound,measurement,setting,value
"CCC1=C[C@@H]2CN(C1)Cc1c([nH]c3ccccc13)[C@@](C(=O)OC)(c1cc3c(cc1OC)N(C)[C@H]1[C@@](O)(C(=O)OC)[C@H](O)[C@]4(CC)C=CCN5CC[C@]31[C@@H]54)C2 [Deacetylvinorelbine, 4’-O-deacetylvinorelbine]",CSI (small intestine tissue concentration),[1]; male Ces2^–/– mice,87 ± 15 ng/g
same,CSIC (small intestine contents concentration),[1]; male Ces2^–/– mice,291 ± 180 ng/g
same,Ccolon (colon concentration),[1]; male Ces2^–/– mice,58 ± 45 ng/g
same,Cliver (liver concentration),[1]; male Ces2^–/– mice,487 ± 127 ng/g
same,Colon Ratio (x 10^-3) (deacetylvinorelbine /vinorelbine),[1]; male Ces2^–/– mice,9.4 ± 3.8 x 10^-3
same,Liver Ratio (x 10^-3) (deacetylvinorelbine /vinorelbine),[1]; male Ces2^–/– mice,21 ± 1.9 x 10^-3
same,Small intestine Ratio (x 10^-3) (deacetylvinorelbine /vinorelbine),[1]; male Ces2^–/– mice,15 ± 1.2 x 10^-3
same,Small intestine contents Ratio (x 10^-3) (deacetylvinorelbine /vinorelbine),[1]; male Ces2^–/– mice,7.4 ± 1.0 x 10^-3
same,liver deacetylvinorelbine-to-vinorelbine ratio,[1]; male Ces2^–/– mice,0.021 ± 0.002
same,small intestine conversion ratio (deacetylvinorelbine-to-vinorelbine),[1]; male Ces2^–/– mice,0.015 ± 0.001
same,CSI (small intestine tissue concentration),[1]; male Ces2^–/–A mice,79 ± 13 ng/g
same,CSIC (small intestine contents concentration),[1]; male Ces2^–/–A mice,400 ± 315 ng/g
same,Ccolon (colon concentration),[1]; male Ces2^–/–A mice,42 ± 43 ng/g
same,Cliver (liver concentration),[1]; male Ces2^–/–A mice,584 ± 157 ng/g
same,Colon Ratio (x 10^-3) (deacetylvinorelbine /vinorelbine),[1]; male Ces2^–/–A mice,7.0 ± 3.7 x 10^-3
same,Liver Ratio (x 10^-3) (deacetylvinorelbine /vinorelbine),[1]; male Ces2^–/–A mice,25± 7.0 x 10^-3
same,Small intestine Ratio (x 10^-3) (deacetylvinorelbine /vinorelbine),[1]; male Ces2^–/–A mice,14 ± 1.0 x 10^-3
same,Small intestine contents Ratio (x 10^-3) (deacetylvinorelbine /vinorelbine),[1]; male Ces2^–/–A mice,8.1 ± 1.1 x 10^-3
same,liver deacetylvinorelbine-to-vinorelbine ratio,[1]; male Ces2^–/–A mice,0.025 ± 0.0070
same,small intestine conversion ratio (deacetylvinorelbine-to-vinorelbine),[1]; male Ces2^–/–A mice,0.014 ± 0.001
same,CSI (small intestine tissue concentration),[1]; male Ces2^–/–V mice,134 ± 47***^ ng/g
same,CSIC (small intestine contents concentration),[1]; male Ces2^–/–V mice,511 ± 322 ng/g
same,Ccolon (colon concentration),[1]; male Ces2^–/–V mice,120 ± 45***^ ng/g
same,Cliver (liver concentration),[1]; male Ces2^–/–V mice,513 ± 61 ng/g
same,Colon Ratio (x 10^-3) (deacetylvinorelbine /vinorelbine),[1]; male Ces2^–/–V mice,17 ± 4.7***^^ x 10^-3
same,Liver Ratio (x 10^-3) (deacetylvinorelbine /vinorelbine),[1]; male Ces2^–/–V mice,22 ± 6.6 x 10^-3
same,Small intestine Ratio (x 10^-3) (deacetylvinorelbine /vinorelbine),[1]; male Ces2^–/–V mice,17 ± 2.2***^^ x 10^-3
same,Small intestine contents Ratio (x 10^-3) (deacetylvinorelbine /vinorelbine),[1]; male Ces2^–/–V mice,10 ± 1.0 x 10^-3
same,liver deacetylvinorelbine-to-vinorelbine ratio,[1]; male Ces2^–/–V mice,0.022 ± 0.007
same,small intestine conversion ratio (deacetylvinorelbine-to-vinorelbine),[1]; male Ces2^–/–V mice,0.017 ± 0.002
same,CSI (small intestine tissue concentration),[1]; male wild-type mice,2214 ± 605 ng/g
same,CSIC (small intestine contents concentration),[1]; male wild-type mice,27594 ± 13421 ng/g
same,Ccolon (colon concentration),[1]; male wild-type mice,780 ± 199 ng/g
same,Cliver (liver concentration),[1]; male wild-type mice,26773 ± 10517 ng/g
same,Colon Ratio (x 10^-3) (deacetylvinorelbine /vinorelbine),[1]; male wild-type mice,340 ± 70 x 10^-3
same,Liver Ratio (x 10^-3) (deacetylvinorelbine /vinorelbine),[1]; male wild-type mice,2500 ± 1300 x 10^-3
same,Small intestine Ratio (x 10^-3) (deacetylvinorelbine /vinorelbine),[1]; male wild-type mice,630 ± 46 x 10^-3
same,Small intestine contents Ratio (x 10^-3) (deacetylvinorelbine /vinorelbine),[1]; male wild-type mice,1000 ± 270 x 10^-3
same,liver deacetylvinorelbine-to-vinorelbine ratio,[1]; male wild-type mice,2.5 ± 1.3
same,small intestine conversion ratio (deacetylvinorelbine-to-vinorelbine),[1]; male wild-type mice,0.63 ± 0.05
same,AUC0-4h,[2]; male Ces2^–/– mice,1.0 ± 0.4 ng·h/mL
same,AUC0-4h ratio (× 10^−3) (deacetylvinorelbine/vinorelbine),[2]; male Ces2^–/– mice,2.0 ± 0.4 × 10^−3
same,Cmax,[2]; male Ces2^–/– mice,0.42 ± 0.15 ng/mL
same,Tmax,[2]; male Ces2^–/– mice,3.7 ± 0.8 h
same,AUC0-4h,[2]; male Ces2^–/–A mice,3.7 ± 2.2 ng·h/mL
same,AUC0-4h ratio (× 10^−3) (deacetylvinorelbine/vinorelbine),[2]; male Ces2^–/–A mice,6.3 ± 7.8 × 10^−3
same,Cmax,[2]; male Ces2^–/–A mice,1.5 ± 1.1 ng/mL
same,Tmax,[2]; male Ces2^–/–A mice,2.6 ± 1.0 h
same,AUC0-4h,[2]; male Ces2^–/–V mice,3.3 ± 2.3 ng·h/mL
same,AUC0-4h ratio (× 10^−3) (deacetylvinorelbine/vinorelbine),[2]; male Ces2^–/–V mice,5.3 ± 1.9 × 10^−3
same,Cmax,[2]; male Ces2^–/–V mice,1.4 ± 1.2 ng/mL
same,Tmax,[2]; male Ces2^–/–V mice,2.7 ± 1.0 h
same,"plasma AUC0-4h, fold increase in Ces2^–/–A compared with Ces2^–/– mice",[2]; male mice,3.7 fold
same,"plasma AUC0-4h, fold increase in Ces2^–/–V compared with Ces2^–/– mice",[2]; male mice,3.3 fold
same,AUC0-4h,[2]; male wild-type mice,238 ± 112 ng·h/mL
same,AUC0-4h ratio (× 10^−3) (deacetylvinorelbine/vinorelbine),[2]; male wild-type mice,640 ± 170 × 10^−3
same,Cmax,[2]; male wild-type mice,91 ± 44 ng/mL
same,Tmax,[2]; male wild-type mice,1.7 ± 0.7 h
